According to patent US11685744B2, “CDK inhibitors and their use as pharmaceuticals” (Prelude Therapeutics, Incorporated, priority 2020, dated 2023):
pIC50: −log10 of the molar value.

How the values were obtained:
CDK4/Cyclin D1 = CDK4/Cyclin D1 (Homo sapiens (Human), UniProt P11802); assay: CDK4/CyclinD1 enzymatic activity assay (TR-FRET); assay type: biochemical; conditions: ATP 2 mM, read-out: CDK4_D1 IC50
How it was run: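 Insect-cell CDK4/Cyclin D1 (1 nM) with ULight-4E-BP1 (100 nM) and 2 mM ATP in HEPES pH 7.4 buffer, preincubated 20 min with compound (9-dose, 3-fold dilutions); 10 mM MgCl2 started the reaction, run 60 min at 37 °C. EDTA/Eu-anti-phospho-4E-BP1 TR-FRET detection; IC50 from 4-parameter Hill fit.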

[1] = test system: MCF7 adenocarcinoma cell line; assay: Cell proliferation studies in MCF7 cells (ATP-Lite, 10 days); assay type: cell-based; conditions: Homo sapiens, 240 h, read-out: PROLIFERATION_CTG_MCF7 IC50
How it was run: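 Cells were seeded at 100 or 200 per well in DMEM with 10% FBS and dosed in quadruplicate over a 9-point 3-fold dilution. Incubation lasted 10 days at 37 °C, with media exchange and re-dosing on day 5. Viability was read by ATP-Lite luminescence and normalised to background and DMSO, giving IC50.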

CDK6/Cyclin D1 = CDK6/Cyclin D1 (Homo sapiens (Human), UniProt Q00534); assay: CDK6/CyclinD1 enzymatic activity assay (TR-FRET); assay type: biochemical; conditions: ATP 250 μM, read-out: CDK6_D1 IC50
How it was run: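 Insect-cell-expressed CDK6/Cyclin D1 (1 nM) phosphorylated ULight-4E-BP1 (100 nM) with 250 μM ATP in HEPES pH 7.4 buffer. After 20 min compound preincubation, reactions were started with 10 mM MgCl2 and run 60 min at 37 °C. EDTA-quenched samples were read by TR-FRET with Eu-anti-P-4E-BP1; IC50 from 9-dose 4-parameter fits.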

[2] = Brain-to-plasma ratio (Kp) determination in Sprague-Dawley rats; conditions: male, rat, brain (homogenate) versus plasma, po, 10 mg/kg

CDK4/Cyclin D1, sequence (P11802 whole entry): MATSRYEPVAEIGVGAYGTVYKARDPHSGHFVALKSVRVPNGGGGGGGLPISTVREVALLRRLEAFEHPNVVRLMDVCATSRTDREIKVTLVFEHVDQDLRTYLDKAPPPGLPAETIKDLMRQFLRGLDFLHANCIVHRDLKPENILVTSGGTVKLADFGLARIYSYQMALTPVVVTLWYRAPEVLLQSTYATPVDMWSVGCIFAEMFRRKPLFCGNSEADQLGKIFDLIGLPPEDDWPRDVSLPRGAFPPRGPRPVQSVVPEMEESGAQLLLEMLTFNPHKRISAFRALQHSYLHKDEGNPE
CDK4/Cyclin D1, sequence (P24385 whole entry partner): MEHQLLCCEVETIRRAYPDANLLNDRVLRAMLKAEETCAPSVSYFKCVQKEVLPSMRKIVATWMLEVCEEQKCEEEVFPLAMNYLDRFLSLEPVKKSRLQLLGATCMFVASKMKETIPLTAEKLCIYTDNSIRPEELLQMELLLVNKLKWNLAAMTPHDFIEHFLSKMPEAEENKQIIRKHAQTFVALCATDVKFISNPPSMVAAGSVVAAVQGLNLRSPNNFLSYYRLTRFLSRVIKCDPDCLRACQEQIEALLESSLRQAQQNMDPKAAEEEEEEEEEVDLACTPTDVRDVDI
CDK6/Cyclin D1, sequence (Q00534 whole entry): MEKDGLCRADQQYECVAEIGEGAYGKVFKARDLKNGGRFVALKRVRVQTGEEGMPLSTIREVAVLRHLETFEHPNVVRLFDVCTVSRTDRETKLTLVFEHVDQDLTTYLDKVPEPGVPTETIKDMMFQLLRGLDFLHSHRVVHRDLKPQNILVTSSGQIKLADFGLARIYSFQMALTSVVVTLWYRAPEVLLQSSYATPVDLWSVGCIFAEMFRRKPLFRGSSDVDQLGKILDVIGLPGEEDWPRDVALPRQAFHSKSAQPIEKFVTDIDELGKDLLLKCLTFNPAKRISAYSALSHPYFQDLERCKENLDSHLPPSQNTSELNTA
CDK6/Cyclin D1, sequence (P24385 whole entry partner): as the sequence (P24385 whole entry partner) above

Row | Structure (SMILES) | pIC50 (CDK4/Cyclin D1) | pIC50 [1] | pIC50 (CDK6/Cyclin D1) | Kp at 4 h [2]
1 | CCN1CC2(C1)CN(c1ccc(Nc3ncc(F)c(-c4sc5c(C(C)C)n(C)nc5c4C)n3)nc1)C2 [Example 55, 4-(2,6-Dimethyl-3-propan-2-ylthieno[3,2-c]pyrazol-5-yl)-N-[5-(6-ethyl-2,6-diazaspiro[3.3]heptan-2-yl)pyridin-2-yl]-5-fluoropyrimidin-2-amine] | ≥ 7.70 | 6.70 to 7.70 | ≥ 7.70 | > 3
2 | Cc1c(-c2nc(Nc3ccc(C4CCN(C)CC4)cn3)ncc2F)sc2c(C(C)C)cn(C)c(=O)c12 [Example 56, 2-(5-Fluoro-2-((5-(1-methylpiperidin-4-yl)pyridin-2-yl)amino)pyrimidin-4-yl)-7-isopropyl-3,5-dimethylthieno[3,2-c]pyridin-4(5H)-one] | ≥ 7.70 | 6.70 to 7.70 | ≥ 7.70 | > 3
3 | CCN1CC2(C1)CN(c1ccc(Nc3ncc(F)c(-c4sc5c(C(C)C)cn(C)c(=O)c5c4C)n3)nc1)C2 [Example 57, 2-(2-((5-(6-Ethyl-2,6-diazaspiro[3.3]heptan-2-yl)pyridin-2-yl)amino)-5-fluoropyrimidin-4-yl)-7-isopropyl-3,5-dimethylthieno[3,2-c]pyridin-4(5H)-one] | ≥ 7.70 | 6.70 to 7.70 | ≥ 7.70 | 1 to 3
4 | Cc1c(-c2nc(Nc3ccc(C4CCN(C)CC4)cn3)ncc2F)sc2c(C(C)C)c[nH]c(=O)c12 [Example 60, 2-(5-Fluoro-2-((5-(1-methylpiperidin-4-yl)pyridin-2-yl)amino)pyrimidin-4-yl)-7-isopropyl-3-methylthieno[3,2-c]pyridin-4(5H)-one] | ≥ 7.70 | ≥ 7.70 | ≥ 7.70 | < 1
5 | Cc1c(-c2nc(Nc3ccc(N4CC5(CCN(C)C5)C4)cn3)ncc2F)sc2c(C(C)C)cn(C)c(=O)c12 [Example 61, 2-(5-Fluoro-2-((5-(6-methyl-2,6-diazaspiro[3.4]octan-2-yl)pyridin-2-yl)amino)pyrimidin-4-yl)-7-isopropyl-3,5-dimethylthieno[3,2-c]pyridin-4(5H)-one] | ≥ 7.70 | ≥ 7.70 | ≥ 7.70 | 1 to 3
6 | Cc1nc2cc(-c3nc(Nc4ccc(CN5CCN(CC(F)F)CC5)cn4)ncc3F)sc2n1C(C)C [Example 64, N-[5-[[4-(2,2-Difluoroethyl)piperazin-1-yl]methyl]pyridin-2-yl]-5-fluoro-4-(2-methyl-3-propan-2-ylthieno[2,3-d]imidazol-5-yl)pyrimidin-2-amine] | 6.70 to 7.70 | 5.70 to 6.70 | 6.70 to 7.70 | < 1
7 | Cc1c(-c2nc(Nc3ccc(N4CCC(N(C)C)C4)cn3)ncc2F)sc2c1nc(C)n2C(C)C (centres unmarked) [Example 73, N-[5-[3-(Dimethylamino)pyrrolidin-1-yl]pyridin-2-yl]-4-(2,6-dimethyl-3-propan-2-ylthieno[2,3-d]imidazol-5-yl)-5-fluoropyrimidin-2-amine] | ≥ 7.70 | 6.70 to 7.70 | 6.70 to 7.70 | 1 to 3
8 | CCN1C2CC1CN(c1ccc(Nc3ncc(F)c(-c4cc5nc(C)n(C(C)C)c5s4)n3)nc1)C2 [Example 74, N-[5-(6-ethyl-3,6-Diazabicyclo[3.1.1]heptan-3-yl)pyridin-2-yl]-5-fluoro-4-(2-methyl-3-propan-2-ylthieno[2,3-d]imidazol-5-yl)pyrimidin-2-amine] | ≥ 7.70 | 6.70 to 7.70 | 6.70 to 7.70 | < 1
9 | Cc1c(-c2nc(Nc3ccc(N4CC5(CCN(C)CC5)C4)cn3)ncc2F)sc2c(C(C)C)cn(C)c(=O)c12 [Example 77, 2-(5-Fluoro-2-((5-(7-methyl-2,7-diazaspiro[3.5]nonan-2-yl)pyridin-2-yl)amino)pyrimidin-4-yl)-7-isopropyl-3,5-dimethylthieno[3,2-c]pyridin-4(5H)-one] | ≥ 7.70 | 6.70 to 7.70 | ≥ 7.70 | 1 to 3
10 | Cc1c(-c2nc(Nc3ccc(N4C[C@H]5CN(C)C[C@H]5C4)cn3)ncc2F)sc2c(C(C)C)cn(C)c(=O)c12 [Example 78, 2-(5-Fluoro-2-((5-((3aR,6aS)-5-methylhexahydropyrrolo[3,4-c]pyrrol-2(1H)-yl)pyridin-2-yl)amino)pyrimidin-4-yl)-7-isopropyl-3,5-dimethylthieno[3,2-c]pyridin-4(5H)-one] | ≥ 7.70 | 6.70 to 7.70 | ≥ 7.70 | 1 to 3
11 | Cc1c(-c2nc(Nc3ccc(N4C[C@@H]5CN(C)C[C@H]5C4)cn3)ncc2F)sc2c(C(C)C)cn(C)c(=O)c12 [Example 79, 2-(5-Fluoro-2-((5-((3aS,6aS)-5-methylhexahydropyrrolo[3,4-c]pyrrol-2(1H)-yl)pyridin-2-yl)amino)pyrimidin-4-yl)-7-isopropyl-3,5-dimethylthieno[3,2-c]pyridin-4(5H)-one] | ≥ 7.70 | 6.70 to 7.70 | ≥ 7.70 | < 1
12 | [2H]C([2H])([2H])N1CCC(c2ccc(Nc3ncc(F)c(-c4sc5c(C(C)C)cn(C)c(=O)c5c4C)n3)nc2)CC1 [Example 82, 2-(5-Fluoro-2-((5-(1-(methyl-d3)piperidin-4-yl)pyridin-2-yl)amino)pyrimidin-4-yl)-7-isopropyl-3,5-dimethylthieno[3,2-c]pyridin-4(5H)-one] | ≥ 7.70 | 6.70 to 7.70 | ≥ 7.70 | > 3
13 | Cc1c(-c2nc(Nc3ccc(C4CCN(C5CCOC5)CC4)cn3)ncc2F)sc2c(C(C)C)cn(C)c(=O)c12 (centres unmarked) [Example 84, 2-(5-Fluoro-2-((5-(1-(tetrahydrofuran-3-yl)piperidin-4-yl)pyridin-2-yl)amino)pyrimidin-4-yl)-7-isopropyl-3,5-dimethylthieno[3,2-c]pyridin-4(5H)-one] | ≥ 7.70 | 6.70 to 7.70 | ≥ 7.70 | 1 to 3
14 | CC(C)c1cn(C)c(=O)c2cc(-c3nc(Nc4ccc(C5CCN(C)CC5)cn4)ncc3F)sc12 [Example 86, 2-(5-Fluoro-2-((5-(1-methylpiperidin-4-yl)pyridin-2-yl)amino)pyrimidin-4-yl)-7-isopropyl-5-methylthieno[3,2-c]pyridin-4(5H)-one] | ≥ 7.70 | 6.70 to 7.70 | 6.70 to 7.70 | 1 to 3
15 | CCN1CCC(c2ccc(Nc3ncc(F)c(-c4sc5c(C(C)C)cn(C)c(=O)c5c4C)n3)nc2)CC1 [Example 87, 2-(2-((5-(1-Ethylpiperidin-4-yl)pyridin-2-yl)amino)-5-fluoropyrimidin-4-yl)-7-isopropyl-3,5-dimethylthieno[3,2-c]pyridin-4(5H)-one] | ≥ 7.70 | 6.70 to 7.70 | ≥ 7.70 | 1 to 3
16 | Cc1c(-c2nc(Nc3ccc(C4CCCN(C)C4)cn3)ncc2F)sc2c(C(C)C)cn(C)c(=O)c12 (centres unmarked) [Example 88, 2-(5-Fluoro-2-((5-(1-methylpiperidin-3-yl)pyridin-2-yl)amino)pyrimidin-4-yl)-7-isopropyl-3,5-dimethylthieno[3,2-c]pyridin-4(5H)-one] | ≥ 7.70 | 6.70 to 7.70 | 6.70 to 7.70 | 1 to 3
17 | Cc1c(-c2nc(Nc3ccc(N4CCN(C(C)C)CC4)cn3)ncc2F)sc2c(C(C)C)cn(C)c(=O)c12 [Example 89, 2-(5-Fluoro-2-((5-(4-isopropylpiperazin-1-yl)pyridin-2-yl)amino)pyrimidin-4-yl)-7-isopropyl-3,5-dimethylthieno[3,2-c]pyridin-4(5H)-one] | ≥ 7.70 | 6.70 to 7.70 | ≥ 7.70 | > 3
18 | CCN1CCN(Cc2ccc(Nc3ncc(F)c(-c4sc5c(C(C)C)cn(C)c(=O)c5c4C)n3)nc2)CC1 [Example 90, 2-(2-((5-((4-Ethylpiperazin-1-yl)methyl)pyridin-2-yl)amino)-5-fluoropyrimidin-4-yl)-7-isopropyl-3,5-dimethylthieno[3,2-c]pyridin-4(5H)-one] | ≥ 7.70 | 6.70 to 7.70 | 6.70 to 7.70 | < 1
19 | Cc1c(-c2nc(Nc3ccc(N4CCC5(CC4)CN(C)C5)cn3)ncc2F)sc2c(C(C)C)cn(C)c(=O)c12 [Example 91, 2-(5-Fluoro-2-((5-(2-methyl-2,7-diazaspiro[3.5]nonan-7-yl)pyridin-2-yl)amino)pyrimidin-4-yl)-7-isopropyl-3,5-dimethylthieno[3,2-c]pyridin-4(5H)-one] | ≥ 7.70 | 6.70 to 7.70 | ≥ 7.70 | < 1
20 | Cc1c(-c2nc(Nc3ccc(C4CCN(C)CC4)nn3)ncc2F)sc2c(C(C)C)cn(C)c(=O)c12 [Example 93, 2-(5-Fluoro-2-((6-(1-methylpiperidin-4-yl)pyridazin-3-yl)amino)pyrimidin-4-yl)-7-isopropyl-3,5-dimethylthieno[3,2-c]pyridin-4(5H)-one] | ≥ 7.70 | 6.70 to 7.70 | 6.70 to 7.70 | < 1
